Assay results reported in US10463644B2, “Uses of sesquiterpene lactone compounds and their derivatives in drugs preparation” (ACCENDATECH, priority 2013, dated 2019).
Where two headings read alike, the source gives them in different places.

Tests used:
[1] = system: IL-1β secreted by synoviocyte; test: Content of IL-1β in culture supernatant of synoviocyte of RA model rats given test compound; assay type: in vivo; settings: rat RA model, dose 30 mg/kg.2d; normal control 0.16 ± 0.034, NaCl 0.49 ± 0.136
In short: (§1)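 Test article is given to RA rats at 30 mg/kg.2d, and synoviocytes are isolated and cultured. Secreted TNF-α and PGE2 in the culture medium are measured by a shared protocol, while IL-1β release is measured by a different protocol. Comparison groups are saline (NaCl) and normal control rats.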

[2] = system: TNF-α secreted by synoviocyte; test: Content of TNF-α in culture supernatant of synoviocyte of RA model rats given test compound; assay type: in vivo; settings: rat RA model, dose 30 mg/kg.2d; normal control 0.38 ± 0.027, NaCl 0.74 ± 0.098
In short: as §1

[3] = system: normal cells; test: Survival rate of normal cells after test compound is added (flow cytometry, Annexin V-FITC/PI); assay type: cell-based; settings: 18 h
In short: (§2)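 Survival was determined in clinical specimens after an 18 h compound treatment, using Annexin V-FITC/PI apoptosis staining and flow cytometry.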

[4] = system: cancer cells; test: Survival rate of cancer cells after test compound is added (flow cytometry, Annexin V-FITC/PI, clinical specimen); assay type: cell-based, patient; settings: Homo sapiens, 18 h, read-out: Survival rate (%) All cells (Stem cells and ordinary cells)
In short: as §2

[5] = system: cancer stem cells; test: Survival rate of cancer stem cells after test compound is added (flow cytometry, Annexin V-FITC/PI, clinical specimen); assay type: cell-based, patient; settings: Homo sapiens, 18 h
In short: as §2

[6] = read-out: Survival rate (%) All cells (Stem cells and ordinary cells)
[7] = read-out: Survival rate (%) Stem cells
[8] = Head and neck squamous cell carcinomas

Question: Which “Content of IL-1β in culture supernatant of synoviocyte (x ± s)” value [1] does the source give for `[2H][C@@]1(CN(C)C)C(=O)O[C@@H]2[C@@H]3[C@@H](CCC34CC4)C3(CC[C@H]21)CC3` [Compound 46] here?
Answer: 0.36 ± 0.067 ng/mL

Question: And the “Content of TNF-α in culture supernatant of synoviocyte (x ± s)” value [2]?
Answer: 0.56 ± 0.034 ng/mL

Question: What about the viability at 10 µM [3, 6] of the same molecule?
Answer: 95%

Question: What about the viability at 10 µM [3, 7] of the same molecule?
Answer: 94%

Question: And the viability at 20 µM [3, 6]?
Answer: 94%

Question: And the viability at 20 µM [3, 7]?
Answer: 92%

Question: What about the viability at 10 µM ([4]; AML) of the same molecule?
Answer: 88%

Question: What about the viability at 20 µM ([4]; AML) of the same molecule?
Answer: 85%

Question: What about the viability at 10 µM ([4]; Brain glioma) of the same molecule?
Answer: 91%

Question: What about the viability at 20 µM ([4]; Brain glioma) of the same molecule?
Answer: 89%

Question: And the viability at 10 µM ([4]; Brain tumor)?
Answer: 91%

Question: What about the viability at 20 µM ([4]; Brain tumor) of the same molecule?
Answer: 89%

Question: What about the viability at 10 µM ([4]; Breast cancer) of the same molecule?
Answer: 89%

Question: What about the viability at 20 µM ([4]; Breast cancer) of the same molecule?
Answer: 86%

Question: What about the viability at 10 µM ([4]; CLL) of the same molecule?
Answer: 88%

Question: What about the viability at 20 µM ([4]; CLL) of the same molecule?
Answer: 89%

Question: What about the viability at 10 µM ([4]; CML) of the same molecule?
Answer: 93%

Question: What about the viability at 20 µM ([4]; CML) of the same molecule?
Answer: 86%

Question: And the viability at 10 µM ([4]; Children hepatoblastoma)?
Answer: 91%

Question: What about the viability at 20 µM ([4]; Children hepatoblastoma) of the same molecule?
Answer: 88%

Question: What about the viability at 10 µM ([4]; Colon adenocarcinoma) of the same molecule?
Answer: 89%

Question: What about the viability at 20 µM ([4]; Colon adenocarcinoma) of the same molecule?
Answer: 86%

Question: What about the viability at 10 µM ([4]; Colorectal cancer) of the same molecule?
Answer: 93%

Question: What about the viability at 20 µM ([4]; Colorectal cancer) of the same molecule?
Answer: 92%

Question: What about the viability at 10 µM ([4]; Gastric cancer) of the same molecule?
Answer: 94%

Question: What about the viability at 20 µM ([4]; Gastric cancer) of the same molecule?
Answer: 87%

Question: What about the viability at 10 µM ([4]; Gastrointestinal tumor) of the same molecule?
Answer: 89%

Question: And the viability at 20 µM ([4]; Gastrointestinal tumor)?
Answer: 86%

Question: And the viability at 10 µM ([4]; Glioma)?
Answer: 91%

Question: And the viability at 20 µM ([4]; Glioma)?
Answer: 84%

Question: And the viability at 10 µM [4, 8]?
Answer: 91%

Question: And the viability at 20 µM [4, 8]?
Answer: 88%

Question: And the viability at 10 µM ([4]; Laryngeal cancer)?
Answer: 87%

Question: And the viability at 20 µM ([4]; Laryngeal cancer)?
Answer: 83%

Question: And the viability at 10 µM ([4]; Liver cancer)?
Answer: 87%

Question: What about the viability at 20 µM ([4]; Liver cancer) of the same molecule?
Answer: 83%

Question: What about the viability at 10 µM ([4]; Lung adenocarcinoma) of the same molecule?
Answer: 93%

Question: What about the viability at 20 µM ([4]; Lung adenocarcinoma) of the same molecule?
Answer: 86%

Question: And the viability at 10 µM ([4]; Lung cancer)?
Answer: 88%

Question: What about the viability at 20 µM ([4]; Lung cancer) of the same molecule?
Answer: 89%

Question: And the viability at 10 µM ([4]; Malignant melanoma)?
Answer: 92%

Question: And the viability at 20 µM ([4]; Malignant melanoma)?
Answer: 89%

Question: What about the viability at 10 µM ([4]; Nasopharynx cancer) of the same molecule?
Answer: 88%

Question: What about the viability at 20 µM ([4]; Nasopharynx cancer) of the same molecule?
Answer: 81%

Question: What about the viability at 10 µM ([4]; Ovarian cancer) of the same molecule?
Answer: 88%

Question: And the viability at 20 µM ([4]; Ovarian cancer)?
Answer: 81%

Question: And the viability at 10 µM ([4]; Pancreatic cancer)?
Answer: 88%

Question: And the viability at 20 µM ([4]; Pancreatic cancer)?
Answer: 85%

Question: What about the viability at 10 µM ([4]; Prostate cancer) of the same molecule?
Answer: 94%

Question: What about the viability at 20 µM ([4]; Prostate cancer) of the same molecule?
Answer: 87%

Question: And the viability at 10 µM ([4]; Retinoblastoma)?
Answer: 91%

Question: And the viability at 20 µM ([4]; Retinoblastoma)?
Answer: 87%

Question: What about the viability at 10 µM ([4]; Skin cancer) of the same molecule?
Answer: 92%

Question: What about the viability at 20 µM ([4]; Skin cancer) of the same molecule?
Answer: 89%

Question: What about the viability at 10 µM ([5]; AML) of the same molecule?
Answer: 82%

Question: What about the viability at 20 µM ([5]; AML) of the same molecule?
Answer: 74%

Question: And the viability at 10 µM ([5]; Brain glioma)?
Answer: 88%

Question: And the viability at 20 µM ([5]; Brain glioma)?
Answer: 81%

Question: And the viability at 10 µM ([5]; Brain tumor)?
Answer: 88%

Question: And the viability at 20 µM ([5]; Brain tumor)?
Answer: 81%

Question: And the viability at 10 µM ([5]; Breast cancer)?
Answer: 82%

Question: What about the viability at 20 µM ([5]; Breast cancer) of the same molecule?
Answer: 76%

Question: What about the viability at 10 µM ([5]; CLL) of the same molecule?
Answer: 82%

Question: And the viability at 20 µM ([5]; CLL)?
Answer: 76%

Question: And the viability at 10 µM ([5]; CML)?
Answer: 85%

Question: And the viability at 20 µM ([5]; CML)?
Answer: 79%

Question: What about the viability at 10 µM ([5]; Children hepatoblastoma) of the same molecule?
Answer: 84%

Question: What about the viability at 20 µM ([5]; Children hepatoblastoma) of the same molecule?
Answer: 78%

Question: And the viability at 10 µM ([5]; Colon adenocarcinoma)?
Answer: 84%

Question: What about the viability at 20 µM ([5]; Colon adenocarcinoma) of the same molecule?
Answer: 74%

Question: And the viability at 10 µM ([5]; Colorectal cancer)?
Answer: 86%

Question: What about the viability at 20 µM ([5]; Colorectal cancer) of the same molecule?
Answer: 78%

Question: And the viability at 10 µM ([5]; Gastric cancer)?
Answer: 87%

Question: What about the viability at 20 µM ([5]; Gastric cancer) of the same molecule?
Answer: 76%

Question: What about the viability at 10 µM ([5]; Gastrointestinal tumor) of the same molecule?
Answer: 82%

Question: And the viability at 20 µM ([5]; Gastrointestinal tumor)?
Answer: 76%

Question: What about the viability at 10 µM ([5]; Glioma) of the same molecule?
Answer: 87%

Question: And the viability at 20 µM ([5]; Glioma)?
Answer: 75%

Question: And the viability at 10 µM [5, 8]?
Answer: 84%

Question: And the viability at 20 µM [5, 8]?
Answer: 78%

Question: And the viability at 10 µM ([5]; Laryngeal cancer)?
Answer: 81%

Question: And the viability at 20 µM ([5]; Laryngeal cancer)?
Answer: 75%

Question: What about the viability at 10 µM ([5]; Liver cancer) of the same molecule?
Answer: 81%

Question: What about the viability at 20 µM ([5]; Liver cancer) of the same molecule?
Answer: 75%

Question: And the viability at 10 µM ([5]; Lung adenocarcinoma)?
Answer: 85%

Question: What about the viability at 20 µM ([5]; Lung adenocarcinoma) of the same molecule?
Answer: 79%

Question: What about the viability at 10 µM ([5]; Lung cancer) of the same molecule?
Answer: 82%

Question: What about the viability at 20 µM ([5]; Lung cancer) of the same molecule?
Answer: 76%

Question: And the viability at 10 µM ([5]; Malignant melanoma)?
Answer: 85%

Question: And the viability at 20 µM ([5]; Malignant melanoma)?
Answer: 77%

Question: And the viability at 10 µM ([5]; Nasopharynx cancer)?
Answer: 79%

Question: And the viability at 20 µM ([5]; Nasopharynx cancer)?
Answer: 72%

Question: And the viability at 10 µM ([5]; Ovarian cancer)?
Answer: 79%

Question: And the viability at 20 µM ([5]; Ovarian cancer)?
Answer: 72%

Question: And the viability at 10 µM ([5]; Pancreatic cancer)?
Answer: 85%

Question: And the viability at 20 µM ([5]; Pancreatic cancer)?
Answer: 79%

Question: What about the viability at 10 µM ([5]; Prostate cancer) of the same molecule?
Answer: 87%

Question: And the viability at 20 µM ([5]; Prostate cancer)?
Answer: 76%

Question: And the viability at 10 µM ([5]; Retinoblastoma)?
Answer: 82%

Question: What about the viability at 20 µM ([5]; Retinoblastoma) of the same molecule?
Answer: 73%

Question: And the viability at 10 µM ([5]; Skin cancer)?
Answer: 85%

Question: What about the viability at 20 µM ([5]; Skin cancer) of the same molecule?
Answer: 77%
